According to patent US8460669B2, “Compositions and methods for identifying response targets and treating flavivirus infection responses” (Academia Sinica, priority 2005, dated 2013):

Columns and labels:
Dectin-1.Fc = target: T1, Dectin-1.Fc (Homo sapiens, UniProt Q9BXN2); assay: Immunosorbent dot binding assay with Dectin-1.Fc
T1 construct: The extracellular domains of lectin receptors, TREMs and TLTs were cloned by the reverse-transcriptase polymerase chain reaction (RT-PCR); made in house; host or cells: 293-F (FreeStyle 293) cells
T1 sequence (Q9BXN2 66-247 limits assumed): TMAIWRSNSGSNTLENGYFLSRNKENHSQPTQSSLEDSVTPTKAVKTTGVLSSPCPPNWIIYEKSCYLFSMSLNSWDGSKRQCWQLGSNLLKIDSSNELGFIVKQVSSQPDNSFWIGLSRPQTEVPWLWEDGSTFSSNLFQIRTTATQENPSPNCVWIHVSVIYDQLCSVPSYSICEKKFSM

DC-SIGNR.Fc = target: T2, DC-SIGNR.Fc (Homo sapiens, UniProt Q9H2X3); assay: Immunosorbent dot binding assay with DC-SIGNR.Fc; conditions: polysaccharide immobilized on PVDF membrane; receptor.Fc 1 μg/mL
T2 construct: The extracellular domains of lectin receptors, TREMs and TLTs were cloned by the reverse-transcriptase polymerase chain reaction (RT-PCR); made in house; host or cells: 293-F (FreeStyle 293) cells
T2 sequence (Q9H2X3 71-399): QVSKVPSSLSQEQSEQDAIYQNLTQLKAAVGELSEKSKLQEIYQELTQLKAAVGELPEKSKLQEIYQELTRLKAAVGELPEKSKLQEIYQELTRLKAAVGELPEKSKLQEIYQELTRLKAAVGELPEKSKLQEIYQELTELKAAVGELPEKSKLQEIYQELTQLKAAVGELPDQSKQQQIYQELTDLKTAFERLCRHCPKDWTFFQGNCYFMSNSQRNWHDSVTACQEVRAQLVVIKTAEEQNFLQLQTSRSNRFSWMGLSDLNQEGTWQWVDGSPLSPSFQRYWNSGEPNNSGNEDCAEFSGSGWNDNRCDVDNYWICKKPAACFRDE

DC-SIGN = target: T3, DC-SIGN (Homo sapiens, UniProt Q9NNX6); assay: Sugar competition, biotinylated DV binding to DC-SIGN-transfected 293T cells; format: cell-based; conditions: flow cytometry
T3 construct: expressed in transfected cells; host or cells: 293T cells
T3 sequence (Q9NNX6 1-404): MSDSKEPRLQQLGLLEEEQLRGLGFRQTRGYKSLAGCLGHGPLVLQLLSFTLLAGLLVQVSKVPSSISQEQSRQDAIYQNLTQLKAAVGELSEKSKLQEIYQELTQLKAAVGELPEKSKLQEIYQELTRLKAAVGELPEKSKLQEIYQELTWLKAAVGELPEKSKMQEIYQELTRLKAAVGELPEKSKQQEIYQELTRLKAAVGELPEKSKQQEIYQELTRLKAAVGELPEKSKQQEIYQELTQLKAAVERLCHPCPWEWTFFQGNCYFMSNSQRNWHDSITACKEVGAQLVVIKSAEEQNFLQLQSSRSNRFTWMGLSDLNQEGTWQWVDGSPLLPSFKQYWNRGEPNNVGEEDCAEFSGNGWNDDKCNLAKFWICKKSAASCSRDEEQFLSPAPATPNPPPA
Procedure: In FIG. 16b, complexes of DV (5×10^6 PFU) with receptor.Fc (5 μg) were immunoprecipitated and detected on westerns with mAb to DV envelope (E) protein. […] FIGS. 16d and 16e show sugar competition assays wherein both DC-SIGN (CLEC4L) and DVLR1/CLEC5A increase DV binding to human 293T cells (FIG. 16d), while addition of sugars inhibits biotinylated DV binding to DC-SIGN- (left panel) or DLVR1/CLEC5A- (right panel) transfected 293T cells in a dose-dependent manner as determined by flow cytometry (FIG. 16e). According to FIG. 16e, MFI represents mean fluorescence intensity. Units (U) for monosaccharide (mannose and fucose) and polysaccharide (mannan) are mM and mg/ml, respectively. […] Data are expressed as the mean±s.d. of three independent experiments. Two-tailed, Student's t-tests were performed.
There are two conserved N-linked glycosylation sites at Asn-67 and Asn-153 of E protein (Pokidysheva, E. et al., Cell 124:485-93 (2006)), and the attached glycans (with terminal fucose and mannose) have been implicated in cellular attachment and viral entry (Modis, Y. et al., J. Virol. 79:1223-1231 (2005)). To investigate the participation of glycans in the association of DVLR1/CLEC5A with DV, virions were incubated with fucose, mannose, or mannan; where the last two sugars are the ligands for DC-SIGN (Mitchell et al., J. Biol. Chem. 276: 28939-28945 ([…])).

Substance	inhibition of the interaction between Dectin-1.Fc and F3 (Dectin-1.Fc; competitor 0.1 μg-1000 μg, or EDTA 10 mM in TBST)	interaction with Dectin-1.Fc in dot-binding assay (Dectin-1.Fc; polysaccharide immobilized on PVDF membrane, receptor.Fc 1 μg/mL)	interaction with DC-SIGNR.Fc in dot-binding assay (DC-SIGNR.Fc)	inhibition of the DC-SIGN-DV interaction (DC-SIGN)
β-1,3-glucan [b-glucan]	inhibited	can bind	only Dectin-1.Fc can bind	
mannan				dose-dependent inhibition
